Measurements published in patent US11452717B2, “Small molecule activators of nicotinamide phosphoribosyltransferase (NAMPT) and uses thereof” (Sanford Burnham Prebys Medical Discovery Institute, priority 2017, dated 2022).

molecular target: NAMPT enzyme (Homo sapiens (Human), UniProt P43490); assay: Enzyme Assay and NMN Detection (NAMPT reaction, fluorescence detection of NMN); format: biochemical; settings: Table B-2; NAMPT activation, NMN formation
Procedure: NAMPT reaction was performed in 50 mM HEPES, pH 7.5, containing 5 mM MgCl2, 0.1% Prionex, 0.005% Tween 20, and 1 mM TCEP at room temperature in Greiner 384-well black polypropylene plates. The concentration of substrates and enzymes in the final assay were as follows: ATP (120 uM), nicotinamide (5 uM), phosphoribosylpyrophosphate (6.25 uM), NAMPT enzyme (16 nM), pyrophosphatase (0.04 U/ml) in the final reaction volume 6 uL. Following 2 h incubation the reaction was stopped by addition 2.5 ul 20% acetophenone in dimethyl sulfoxide (DMSO) and 2.5 ul 2 MKOH. Plates were centrifuges and added with 10.5 ul 88% formic acid. The fluorescence (ex380/em460) was measured following another short incubation and 30 min incubation. The increased concentration of NMN was determined from a calibration curve obtained at the time of experiment.

NAMPT enzyme, sequence (P43490 whole entry, species assumed): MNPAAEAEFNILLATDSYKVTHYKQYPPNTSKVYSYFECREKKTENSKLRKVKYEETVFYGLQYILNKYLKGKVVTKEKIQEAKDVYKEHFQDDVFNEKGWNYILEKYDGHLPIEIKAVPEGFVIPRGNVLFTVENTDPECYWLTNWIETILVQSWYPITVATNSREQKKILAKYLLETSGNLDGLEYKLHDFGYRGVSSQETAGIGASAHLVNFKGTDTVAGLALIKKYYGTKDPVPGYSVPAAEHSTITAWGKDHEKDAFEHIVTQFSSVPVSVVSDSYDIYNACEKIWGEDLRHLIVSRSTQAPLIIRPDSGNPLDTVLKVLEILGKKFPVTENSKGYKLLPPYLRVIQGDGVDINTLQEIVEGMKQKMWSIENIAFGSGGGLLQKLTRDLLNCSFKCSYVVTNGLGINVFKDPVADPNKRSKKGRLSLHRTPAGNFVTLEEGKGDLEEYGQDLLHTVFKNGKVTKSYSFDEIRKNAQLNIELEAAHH

SMILES	EC50 [µM]
O=C(NCc1ccncc1)Nc1ccc(C(=O)N2CCc3ccccc3C2)cc1 [1-(Pyridin-4-ylmethyl)-3-(4-(1,2,3,4-tetrahydroisoquinoline-2-carbonyl)phenyl)urea]	0.1 to 2
O=C(NCc1ccncc1)Nc1ccc(C(=O)N2CCCC2)cc1 [1-(Pyridin-4-ylmethyl)-3-(4-(pyrrolidine-1-carbonyl)phenyl)urea]	5 to 20
O=C(NCc1ccncc1)Nc1ccc(OC(F)(F)F)cc1 [1-(Pyridin-4-ylmethyl)-3-(4-(trifluoromethoxy)phenyl)urea]	> 20

same assay, conditions: Table B-3; NAMPT activation, NMN formation

SMILES	EC50 [µM]
O=C(NCc1ccccn1)Nc1ccc(OC(F)(F)F)cc1 [1-(Pyridin-2-ylmethyl)-3-(4-(trifluoromethoxy)phenyl)urea]	> 20
O=C(NCc1ccccn1)Nc1ccc(C(F)(F)F)cc1 [1-(Pyridin-2-ylmethyl)-3-(4-(trifluoromethyl)phenyl)urea]	> 20
Cc1ccc(NC(=O)NCc2ccccn2)cc1 [1-(Pyridin-2-ylmethyl)-3-(p-tolyl)urea]	> 20
O=C(NCc1cccnc1)Nc1ccc(OC(F)(F)F)cc1 [1-(Pyridin-3-ylmethyl)-3-(4-(trifluoromethoxy)phenyl)urea]	> 20
O=C(NCc1cccnc1)Nc1ccc(C(F)(F)F)cc1 [1-(Pyridin-3-ylmethyl)-3-(4-(trifluoromethyl)phenyl)urea]	> 20
Cc1ccc(NC(=O)NCc2cccnc2)cc1 [1-(Pyridin-3-ylmethyl)-3-(p-tolyl)urea]	> 20

same assay, conditions: Table B-4; NAMPT activation, NMN formation

SMILES	EC50 [µM]
Cc1ccccc1-c1ccccc1S(=O)(=O)c1ccc(NC(=O)NCc2cn[nH]c2)cc1 [1-((1H-Pyrazol-4-yl)methyl)-3-(4-((2′-methyl-[1,l′-biphenyl]-2-yl)sulfonyl)phenyl)urea]	0.1 to 2
O=C(NCc1cn[nH]c1)Nc1ccc(S(=O)(=O)c2cccc(F)c2)cc1 [1-((1H-Pyrazol-4-yl)methyl)-3-(4-((3-fluorophenyl)sulfonyl)phenyl)urea]	< 0.1
N#Cc1cccc(-c2ccccc2S(=O)(=O)c2ccc(NC(=O)NCc3cn[nH]c3)cc2)c1 [1-((1H-Pyrazol-4-yl)methyl)-3-(4-((3′-cyano-[1,1′-biphenyl]-2-yl)sulfonyl)phenyl)urea]	5 to 20
COc1ccccc1-c1csc(Nc2ccc(NC(=O)NCc3cn[nH]c3)cc2)n1 [1-((1H-Pyrazol-4-yl)methyl)-3-(4-((4-(2-methoxyphenyl)thiazol-2-yl)amino)phenyl)urea]	0.1 to 2
COc1cccc(-c2csc(Nc3ccc(NC(=O)NCc4cn[nH]c4)cc3)n2)c1 [1-((1H-Pyrazol-4-yl)methyl)-3-(4-((4-(3-methoxyphenyl)thiazol-2-yl)amino)phenyl)urea]	0.1 to 2
COc1ccc(-c2csc(Nc3ccc(NC(=O)NCc4cn[nH]c4)cc3)n2)cc1 [1-((1H-Pyrazol-4-yl)methyl)-3-(4-((4-(4-methoxyphenyl)thiazol-2-yl)amino)phenyl)urea]	0.1 to 2
O=C(NCc1cn[nH]c1)Nc1ccc(S(=O)(=O)c2ccc(C(F)(F)F)cc2)cc1 [1-((1H-Pyrazol-4-yl)methyl)-3-(4-((4-(trifluoromethyl)phenyl)sulfonyl)phenyl)urea]	0.1 to 2
O=C(NCc1cn[nH]c1)Nc1ccc(S(=O)(=O)c2ccc(F)cc2)cc1 [1-((1H-Pyrazol-4-yl)methyl)-3-(4-((4-fluorophenyl)sulfonyl)phenyl)urea]	< 0.1
O=C(NCc1cn[nH]c1)Nc1ccc(Nc2nc(-c3ccccc3)cs2)cc1 [1-((1H-Pyrazol-4-yl)methyl)-3-(4-((4-phenylthiazol-2-yl)amino)phenyl)urea]	0.1 to 2
N#Cc1ccc(-c2ccccc2S(=O)(=O)c2ccc(NC(=O)NCc3cn[nH]c3)cc2)cc1 [1-((1H-Pyrazol-4-yl)methyl)-3-(4-((4′-cyano-[1,1′-biphenyl]-2-yl)sulfonyl)phenyl)urea]	5 to 20
O=C(NCc1cn[nH]c1)Nc1ccc(Nc2ncc(-c3ccccc3)s2)cc1 [1-((1H-Pyrazol-4-yl)methyl)-3-(4-((5-phenylthiazol-2-yl)amino)phenyl)urea]	0.1 to 2
O=C(NCc1cn[nH]c1)Nc1ccc(S(=O)(=O)c2ccccc2-c2ccccc2)cc1 [1-((1H-Pyrazol-4-yl)methyl)-3-(4-([1,1′-biphenyl]-2-ylsulfonyl)phenyl)urea]	< 0.1
O=C(NCc1cn[nH]c1)Nc1ccc(S(=O)(=O)c2cccc(-c3ccccc3)c2)cc1 [1-((1H-Pyrazol-4-yl)methyl)-3-(4-([1,1′-biphenyl]-3-ylsulfonyl)phenyl)urea]	0.1 to 2
O=C(NCc1cn[nH]c1)Nc1ccc(-c2nc3ccccc3s2)cc1 [1-((1H-Pyrazol-4-yl)methyl)-3-(4-(benzo[d]thiazol-2-yl)phenyl)urea]	5 to 20
O=C(NCc1cn[nH]c1)Nc1ccc(Nc2nc3ccccc3s2)cc1 [1-((1H-Pyrazol-4-yl)methyl)-3-(4-(benzo[d]thiazol-2-ylamino)phenyl)urea]	> 20
O=C(NCc1cn[nH]c1)Nc1ccc(S(=O)(=O)c2ccccn2)cc1 [1-((1H-Pyrazol-4-yl)methyl)-3-(4-(pyridin-2-ylsulfonyl)phenyl)urea]	0.1 to 2
O=C(NCc1cn[nH]c1)Nc1ccc(S(=O)(=O)c2ccncc2)cc1 [1-((1H-Pyrazol-4-yl)methyl)-3-(4-(pyridin-4-ylsulfonyl)phenyl)urea]	0.1 to 2
O=C(NCc1cn[nH]c1)Nc1ccc(S(=O)(=O)c2cncnc2)cc1 [1-((1H-Pyrazol-4-yl)methyl)-3-(4-(pyrimidin-5-ylsulfonyl)phenyl)urea]	0.1 to 2

same assay, conditions: Table B-5; NAMPT activation, NMN formation

SMILES	EC50 [µM]
O=C(NCc1cnco1)Nc1ccc(-c2ncc(-c3ccccc3)s2)cc1 [1-(Oxazol-5-ylmethyl)-3-(4-(5-phenylthiazol-2-yl)phenyl)urea]	5 to 20
O=C(NCc1cnco1)Nc1ccc(S(=O)(=O)c2cccc(C(F)(F)F)c2)cc1 [1-(Oxazol-5-ylmethyl)-3-(4-((3-(trifluoromethyl)phenyl)sulfonyl)phenyl)urea]	0.1 to 2
O=C(NCc1cnco1)Nc1ccc(S(=O)(=O)c2ccc(C(F)(F)F)cc2)cc1 [1-(Oxazol-5-ylmethyl)-3-(4-((4-(trifluoromethyl)phenyl)sulfonyl)phenyl)urea]	0.1 to 2
O=C(NCc1cnco1)Nc1ccc(Nc2nc(-c3ccccc3)cs2)cc1 [1-(Oxazol-5-ylmethyl)-3-(4-((4-phenylthiazol-2-yl)amino)phenyl)urea]	2 to 5
O=C(NCc1cnco1)Nc1ccc(Nc2ncc(-c3ccccc3)s2)cc1 [1-(Oxazol-5-ylmethyl)-3-(4-((5-phenylthiazol-2-yl)amino)phenyl)urea]	0.1 to 2
O=C(NCc1cnco1)Nc1ccc(S(=O)(=O)c2ccccn2)cc1 [1-(Oxazol-5-ylmethyl)-3-(4-(pyridin-2-ylsulfonyl)phenyl)urea]	0.1 to 2
O=C(NCc1cnco1)Nc1ccc(S(=O)(=O)c2ccncc2)cc1 [1-(Oxazol-5-ylmethyl)-3-(4-(pyridin-4-ylsulfonyl)phenyl)urea]	0.1 to 2

same assay, conditions: Table B-6; NAMPT activation, NMN formation

SMILES	EC50 [µM]
O=C(NCc1cn[nH]c1)Nc1ccc(S(=O)(=O)c2cccc(C(F)(F)F)c2)cc1 [1-((1H-Pyrazol-4-yl)methyl)-3-(4-((3-(trifluoromethyl)phenyl)sulfonyl)phenyl)urea]	0.1 to 2
O=C(NCc1ccncc1)Nc1ccc(S(=O)(=O)c2cccc(C(F)(F)F)c2)cc1 [1-(Pyridin-4-ylmethyl)-3-(4-((3-(trifluoromethyl)phenyl)sulfonyl)phenyl)urea]	< 0.1
O=C(NCc1ccncc1)Nc1ccc(S(=O)(=O)c2ccncc2)cc1 [1-(Pyridin-4-ylmethyl)-3-(4-(pyridin-4-ylsulfonyl)phenyl)urea]	0.1 to 2
